Source: PMC10254843, “Discovery of New 2-Phenylamino-3-acyl-1,4-naphthoquinones as Inhibitors of Cancer Cells Proliferation: Searching for Intra-Cellular Targets Playing a Role in Cancer Cells Survival” (Molecules, 2023)

How the values were obtained:
[1] = test system: MCF-7 human breast cancer cell line; parameters: method as in PMID 23167798; details: cytotoxicity against MCF-7; cited from earlier work
[2] = test system: DU-145 (prostate cancer cells); test: MTT cell survival assay, DU-145 prostate cancer cells; format: cell-based; details: Homo sapiens, MTT test, cells incubated at 37 °C for 48 h (Table 1 footnote), mean ± SEM, n = 3
Procedure: (§1) Human cancer cell lines from bladder (T24), prostate (DU–145), breast (MCF–7) and non-tumor HEK-293 cells were obtained from the American Type Culture Collection (ATCC, Manassas, VA, USA). The cultures were maintained at a density of 1–2 × 10^5 cells/mL and the medium was changed at 48- and 72-h intervals. They were cultured in high-glucose Dulbecco’s modified Eagle medium (Gibco, Grand Island, NY, USA) supplemented with 10% fetal calf serum, penicillin (100 U/mL) and streptomycin (100 μg/mL). All cultures were kept at 37 °C in 95% air/5% CO2 at 100% humidity. Phosphate-buffered saline (PBS) was purchased from Gibco. Cells were incubated at the indicated times at 37 °C with or without compounds 1–14 at various concentrations.
(§2) The cytotoxicity of the compounds 1–14 was assessed by following the reduction of MTT (3-(4,5-Dimethylthiazol-2-yl)-2,5-diphenyltetrazolium bromide) to formazan blue. […] Doxorubicin was used as a standard chemotherapeutic agent (positive control). Cells were washed twice with warm PBS and further incubated with MTT (0.5 mg/mL) for 2 h at 37 °C. Blue formazan crystals were solubilized by adding 100 µL DMSO/well, and the optical density of colored solutions was subsequently read at 550 nm in a microplate reader Tecan infinite M200 Pro (Männedorf, Switzerland). The compounds 1–14 were dissolved in DMSO (stock solution at 100 mM) and further diluted to be evaluated at the following concentrations: 0 μM, 1 μM, 10 μM, 20 μM, 40 μM, 60 μM, 80 μM and 100 μM. Results are expressed as % of MTT reduction compared to untreated control conditions. The IC50 values were calculated using the GraphPad Prism 8.0.2 software (San Diego, CA, USA).

[3] = test system: MCF-7 (mammary cancer cells); test: MTT cell survival assay, MCF-7 mammary cancer cells; format: cell-based; details: Homo sapiens, MCF7; MTT test; cells incubated at 37 °C for 48 h (Table 1 footnote); mean ± SEM, n = 3
Procedure: as §1, §2

[4] = test system: T24 (Urinary bladder cancer cells); test: MTT cell survival assay, T24 urinary bladder cancer cells; format: cell-based; details: Homo sapiens; MTT test; cells incubated at 37 °C for 48 h (Table 1 footnote); mean ± SEM, n = 3
Procedure: as §1, §2

[5] = test system: non-tumorigenic HEK-293 (embryonic kidney cells); test: MTT cell survival assay, non-tumorigenic HEK-293 cells; format: cell-based; details: Homo sapiens, HEK293; MTT test; cells incubated at 37 °C for 48 h (Table 1 footnote); mean ± SEM, n = 3
Procedure: as §1, §2

[6] = test system: HEK-293 cells/tumour cells; test: Mean selective index, HEK-293 vs tumour cells; format: cell-based, human; details: MSI = IC50 values HEK-293 cells/IC50 values tumour cells
Procedure: The cytotoxicity of the compounds 1–14 was assessed by following the reduction of MTT (3-(4,5-Dimethylthiazol-2-yl)-2,5-diphenyltetrazolium bromide) to formazan blue. Cells were seeded into 96-well plates at a density of 10,000 cells/well for 24 h and then they were further incubated for 24 h with or without the quinones. Doxorubicin was used as a standard chemotherapeutic agent (positive control). Cells were washed twice with warm PBS and further incubated with MTT (0.5 mg/mL) for 2 h at 37 °C. Blue formazan crystals were solubilized by adding 100 µL DMSO/well, and the optical density of colored solutions was subsequently read at 550 nm in a microplate reader Tecan infinite M200 Pro (Männedorf, Switzerland). The compounds 1–14 were dissolved in DMSO (stock solution at 100 mM) and further diluted to be evaluated at the following concentrations: 0 μM, 1 μM, 10 μM, 20 μM, 40 μM, 60 μM, 80 μM and 100 μM. Results are expressed as % of MTT reduction compared to untreated control conditions. The IC50 values were calculated using the GraphPad Prism 8.0.2 software (San Diego, CA, USA).

[7] = Half-wave potentials by cyclic voltammetry; format: physicochemical
Procedure: Calculation of lipophilicity (ClogP) and molar refractivity (CMR) was assessed by using the ChemBioDraw Ultra 11.0 software and the obtained values are shown in Table 3. Redox potentials of 2-phenylamino-3-acyl-1,4-naphtoquinones 1–14 were measured by cyclic voltammetry at room temperature in acetonitrile as solvent using a platinum electrode and 0.1M tetraethylammonium tetrafluoroborate as the supporting electrolyte.

[8] = test system: Bcl-2; test: RT-qPCR mRNA level of Bcl-2 in DU-145 cells; format: cell-based, human; details: DU145 cells, 24 h; compound 4 at 1 µM, compound 11 at 6 µM; normalized to B2M, 2^−∆∆Ct vs vehicle (1.00); mean ± SEM
Procedure: (§3) The […] cells were cultured as previously mentioned. […] Afterwards, they were washed with phosphate-buffered saline. The cellular lysate was prepared with E.Z.N.A.®RNA-Lock Reagent (Omega Bio-tek, Norcross, GA, USA) to preserve and immediately stabilize the total RNA for the subsequent gene expression assays. The total RNA isolated from the cells using the E.Z.N.A.®HP Total RNA Isolation Kit (Omega Bio-tek) was reverse-transcribed to cDNA using the AffinityScript QPCR cDNA Synthesis Kit (Agilent Technologies, Santa Clara, CA, USA) and 1000 ng of the RNA sample.
(§4) The cDNA synthesized was employed for qPCR using Brilliant III Ultra-Fast SYBR®Green QPCR Master Mix (Agilent Technologies) in an Mx3000P qPCR System (Agilent Technologies), employing a 96-well plate with 20 μL of PCR reaction per well and 10 pmol each of forward and reverse gene-specific primers. Nine genes were analyzed: B2M, Bcl2, CDC25A, CCN2, GSR, HDAC4, mTOR, TNF, TP53 and their quantitative real-time (qPCR) primer sequences are reported in Table S1 (supplementary material). The relative gene expressions were determined using Beta-2-microglobulin (B2M) as housekeeping, and the delta-delta Ct method (2^−∆∆Ct method) with regard to the vehicle-treated group (i.e., the reference group). Five biological replicates were used from each group (treated and reference group). […]

[9] = test system: CDC25A; test: RT-qPCR mRNA level of CDC25A in DU-145 cells; format: cell-based, human; details: DU145 cells, 24 h; compound 4 at 1 µM, compound 11 at 6 µM; normalized to B2M, 2^−∆∆Ct vs vehicle (1.00); mean ± SEM
Procedure: as §3, §4

[10] = test system: CCN2; test: RT-qPCR mRNA level of CCN2 in DU-145 cells; format: cell-based, human; details: DU145 cells, 24 h; compound 4 at 1 µM, compound 11 at 6 µM; normalized to B2M, 2^−∆∆Ct vs vehicle (1.00); mean ± SEM
Procedure: as §3, §4

[11] = test system: GSR; test: RT-qPCR mRNA level of GSR in DU-145 cells; format: cell-based, human; details: DU145 cells, 24 h; compound 4 at 1 µM, compound 11 at 6 µM; normalized to B2M, 2^−∆∆Ct vs vehicle (1.00); mean ± SEM
Procedure: as §3, §4

[12] = test system: HDAC4; test: RT-qPCR mRNA level of HDAC4 in DU-145 cells; format: cell-based, human; details: DU145 cells, 24 h; compound 4 at 1 µM, compound 11 at 6 µM; normalized to B2M, 2^−∆∆Ct vs vehicle (1.00); mean ± SEM
Procedure: as §3, §4

[13] = test system: mTOR; test: RT-qPCR mRNA level of mTOR in DU-145 cells; format: cell-based, human; details: DU145 cells, 24 h; compound 4 at 1 µM, compound 11 at 6 µM; normalized to B2M, 2^−∆∆Ct vs vehicle (1.00); mean ± SEM; * p < 0.05 vs vehicle
Procedure: as §3, §4

[14] = test system: TNF; test: RT-qPCR mRNA level of TNF in DU-145 cells; format: cell-based, human; details: DU145 cells, 24 h; compound 4 at 1 µM, compound 11 at 6 µM; normalized to B2M, 2^−∆∆Ct vs vehicle (1.00); mean ± SEM
[15] = test system: TP53; test: RT-qPCR mRNA level of TP53 in DU-145 cells; format: cell-based, human; details: DU145 cells, 24 h; compound 4 at 1 µM, compound 11 at 6 µM; normalized to B2M, 2^−∆∆Ct vs vehicle (1.00); mean ± SEM
Procedure: as §3, §4

Structure (SMILES)	IC50 [1] [µM]	IC50 [2] [µM]	IC50 [3] [µM]	IC50 [4] [µM]	IC50 [5] [µM]	MSI (mean selective index) [6]	−E^I½ (mV) ([7]; acetonitrile, platinum electrode, room temperature, negative of the potential)	half-wave potential ([7]; signed value) [mV]	Relative expression level (mRNA level) Bcl-2 [8]	Relative expression level (mRNA level) CDC25A [9]	Relative expression level (mRNA level) CCN2 [10]	Relative expression level (mRNA level) GSR [11]	Relative expression level (mRNA level) HDAC4 [12]	Relative expression level (mRNA level) mTOR [13]	Relative expression level (mRNA level) TNF [14]	Relative expression level (mRNA level) TP53 [15]
O=C(C1=C(Nc2ccccc2)C(=O)c2ccccc2C1=O)c1ccco1 [compound V]	1.5	–	–	–	–	–	–	–	–	–	–	–	–	–	–	–
O=C(C1=C(Nc2ccccc2)C(=O)c2ccccc2C1=O)c1ccccc1 [Compound 4, 2-(Phenylamino)-3-benzoylnaphthalene-1,4-dione]	–	0.82 ± 0.1	5.16 ± 0.16	15.8 ± 0.9	45.2 ± 6.59	6.2	695	−695	0.81 ± 0.05	1.09 ± 0.10	0.95 ± 0.03	0.95 ± 0.05	0.91 ± 0.05	0.84 ± 0.06	1.20 ± 0.08	0.94 ± 0.04
